Assay results as given in patent publication US10335503B2, “Compound that specifically binds to AMPA receptor” (Public University Corporation Yokohama City University, priority 2015, dated 2019).

Experiments:
AMPA receptor [1] = experiment: In vivo PET imaging using rat, with blocking by non-radio-labeled K-2
Procedure: (§1) In the LC-MS/MS experiment, all of the synthesized compounds were dissolved in 100% DMSO so as to have a concentration of 2.5 mM, diluted with physiological saline water immediately before administration (PEPA (1.2 pmol/g), M-1 (12 pmol/g), K-2 (12 pmol/g), M-3 (60 pmol/g), and M-2 (240 pmol/g)), and administered by the parenteral route. In the electrophysiological experiment, PEPA and K-2 were dissolved in 100% DMSO so as to have a concentration of 150 mM, diluted with ACSF as a reflux liquid immediately before the experiment so as to have a concentration of 150 μM and then used. […]
The PET imaging was performed using micro PET (Focus 220; Siemens Medical Solution). PET imaging experiment using a rat: After the rat was allowed to get to sleep by isoflurane (DS Pharma Animal Health Co., Ltd., Japan), anesthesia was maintained at an isoflurane concentration of 1.5% (air 2 L/min), and then the intravenous line was secured from the tail vein by a 24G Surflo indwelling needle (TERUMO CORPORATION, Japan). The rat was fixed to the PET imaging base, and then radiation imaging for checking the position was performed before imaging. Thereafter, 50% DMSO or K-2 dissolved in 50% DMSO was administered by the parenteral route, and after 3 minutes from administration, the radio-labeled K-2 (about 4 MBq) was administered. During the PET imaging, the body temperature was maintained to 37±0.5° C. using a feedback type heating plate (BWT-100A; Bio Research Center, Japan). After the imaging, the intravenous line was removed, the administration of isoflurane was stopped, and then the rat was removed from the PET imaging base and returned to the home cage. The rat was raised in the room in which imaging was performed during 1 week after the imaging, and then the rat was returned to the normal rat group rearing room.
(§2) A summation image was constructed and offset was removed therefrom with a 0.5-mm Hanning filter so as to reconstruct a dynamic image. The reconstructed image was analyzed using PMOD image analysis software (PMOD technologies) by combining VOIs including a plurality of regions of the striatum, the hippocampus, the cerebellum, the brain stem, and the like with a region formed on the template MRI image. The calculation value used in quantitative determination was % SUV (% of standardized uptake value) and obtained by the following formula; % SUV=amount of radiation of each tissue surrounded by VOI (MBq)/administered amount of radiation (MBq)×weight (g)

[2] = system: AMPA receptors (GluA1 to 3); experiment: In vivo PET imaging of rat with shRNA against GluA1 to 3 in left striatum, scramble RNA in right striatum; conditions: seven rats, shRNA side vs scramble side of striatum
Procedure: The PET imaging was performed using micro PET (Focus 220; Siemens Medical Solution). PET imaging experiment using a rat: After the rat was allowed to get to sleep by isoflurane (DS Pharma Animal Health Co., Ltd., Japan), anesthesia was maintained at an isoflurane concentration of 1.5% (air 2 L/min), and then the intravenous line was secured from the tail vein by a 24G Surflo indwelling needle (TERUMO CORPORATION, Japan). The rat was fixed to the PET imaging base, and then radiation imaging for checking the position was performed before imaging. Thereafter, 50% DMSO or K-2 dissolved in 50% DMSO was administered by the parenteral route, and after 3 minutes from administration, the radio-labeled K-2 (about 4 MBq) was administered. […]
as §2, with “(g) […]” for “(g)”

[3] = LC-MS/MS experiment: accumulation of compound in hippocampal tissue; type: in vivo; conditions: rat, 15 minutes from administration, compared among five compounds (FIG. 1)
Procedure: as §1
The LC-MS/MS experiment and the biochemical experiment were performed after a rat was allowed to get to sleep by inhalation of isoflurane while anesthesia was maintained using a dedicate carburetor at a concentration of 1.5%. […] In the LC-MS/MS experiment, the hippocampus region was collected in a thickness of approximately 2 mm from the extracted whole brain using Brain matrix (ASI instruments, U.S.), the tissue weight thereof was measured, and then the hippocampus region was put into a 1.5-ml conical tube. […]
As for the preliminary reviewing of measurement conditions, an optimal dilution solvent and an optimal dilution magnification for each compound were determined using the hippocampal tissue (Table 4). […]

AMPA receptor [4] = experiment: Electrophysiological experiment: AMPA current by whole-cell recording in acute hippocampus section; type: cell-based, rat; conditions: 150 μM in ACSF for 15 minutes, CA1 pyramidal cell, ground state converted as 1
Procedure: as §1
A 7- to 8-week-old male SD rat was used. […] The section was left to stand still in ACSF at room temperature for 60 minutes, and then the AMPA current was measured by a whole-cell recording method. 100 μM of picrotoxin and 100 μM of DL-APV were administered under the condition that the ACSF was refluxed at a rate of 3 ml/min, and then only the AMPA current was isolated and measured.
The recording electrode was placed on a pyramidal cell in CA1, and the exciting electrode was placed on the Schaffer fiber separated away from the recording cell by 100 to 200 μm. […] The AMPA current in the ground state was recorded for 5 minutes, reflux was thereafter performed using ACSF added with PEPA or K-2 for 15 minutes, and then the AMPA current was recorded in the reflux liquid not containing PEPA or K-2 for 30 minutes. […]

SMILES	BPnd (estimated binding potential) (AMPA receptor [1]; Logan Plot method, blocking using the non-radio-labeled K-2, striatum and hippocampus)	uptake of the brain stem (AMPA receptor [1]; blocking by non-radio-labeled K-2)	degree of loss of specific binding after blocking (AMPA receptor [1]; prior administration of 0.05 mg/kg of non-radio-labeled K-2, compared to 0.5 mg/kg)	specific accumulation of radio-labeled K-2 after blocking (AMPA receptor [1]; prior administration of 0.5 mg/kg of non-radio-labeled K-2, 3 minutes before)	brain uptake (AMPA receptor [1]; rat, PET, about 4 MBq)	decrease in the PET image value at the shRNA side [2]	accumulation of compound in hippocampal tissue [3]	ratio of AMPA current to reference value (AMPA receptor [4])
[11CH3]N(CCSc1cc(F)c(OCC(N)=O)c(F)c1)S(=O)(=O)c1ccccc1 [Radio-labeled K-2, {4-[2-(Benzenesulfonyl-[^11C]Methyl-Amino)-Ethylsulfanil]-2,6-Difluoro-Phenoxy}-Acetamide]	significantly lowered	not changed by blocking	small	lost	extremely high brain uptake	about 30%		
NC(=O)COc1c(F)cc(SCCNS(=O)(=O)c2ccccc2)cc1F [PEPA, 2-[2,6-Difluoro-4-({2-[(phenylsulfonyl)amino]ethyl}thio)phenoxy]acetamide, reference compound]							highest	2.4±0.13
